From publication PMC4710522, “A Novel Triazolopyridine-Based Spleen Tyrosine Kinase Inhibitor That Arrests Joint Inflammation” (PLoS ONE, 2016)
Where two headings read alike, the source gives them in different places.

How the values were obtained:
[1] = test system: BCR-dependent CD69 upregulation on primary human B-cells; experiment: primary human B-cell assay, anti-IgM stimulated CD69 upregulation; type: cell-based
Description: Buffy coat-derived purified B-cells were generated using the RosetteSep B-cell and Ficoll-Paque Plus reagents, as described in protocols provided by the suppliers. Purified B-cells were plated in 96-well U-bottom plates, preincubated with CC-509 at indicated concentrations for 30 minutes, and then stimulated with anti-IgM for 14 hours in a tissue culture incubator. Plates were washed once in FBS Stain Buffer and incubated with the anti-CD69 antibody in the dark for 30 minutes at room temperature. Plates were washed three times and analyzed by flow cytometry on the FACSArray Bioanalyzer. Standard gating methods were used to identify B-cells and to measure the mean intensity of CD69 fluorescence. FCS files were exported and analyzed as described in the Data Analysis section.
For the TEL-Syk assay, the intensity values for the 700 and 800 channel were exported as text files in ActivityBase (IDBS, Guildford, UK) to derive the ratios that reflect kinase activity. For LAD2 experiments, enzyme activity values were exported as text files into ActivityBase to calculate “percent release” according to the formula: 100* supernatant OD405/ (supernatant OD405 + (pellet OD405*pellet dilution factor)). For the basophil and B-cells assays, flow cytometry data was exported from the FACS Array and processed using FloJo software package (TreeStar, Inc., Ashland, Oregon). For the JAK2 HEL and Ramos NFAT β-lactamase assays, the fluorescence values obtained at 460 nm and 530 nm were exported into ActivityBase to calculate response ratios. For the neutrophil, macrophage, KDR, and JAK1/3 assays, raw values were exported into ActivityBase to calculate percent inhibition. All IC50 calculations were generated using XLfit (IDBS, Guildford, UK) algorithm 205 within Excel. […] Evans blue dye extravasation was expressed as mean ± SEM and % inhibition for the test article groups was normalized to the cromolyn positive control. […] The mean data from each group was plotted and either the AUC(day 11–18) or % inhibition on day 18 was calculated. Data is expressed as mean ± SEM of each group with n = 6–12. […]

[2] = test system: FcεR-dependent β-hexosaminidase release from LAD2 cells; experiment: LAD2 IgE-dependent beta-hexosaminidase release; type: cell-based, human
Description: Cells were cultured in StemPro-34 media (Life Technologies) with 100 ng/ml human SCF (GIBCO) and stimulated as described by supplier. Briefly, LAD2 cells were gently dislodged from culture flask, added to 96-well round bottom plates, and sensitized with 0.05 μg/ml final concentration of NP-IgE (AbD Serotec, Oxford, UK) for 16 hours in a standard tissue culture incubator at 37C with 5% CO2. Cells were washed once and equilibrated in Tyrode’s Buffer (Sigma Chemicals, St. Louis, MO) for 3 hours, preincubated with CC-509 for 30 minutes, and stimulated with 0.1 μg/ml NP16-BSA (Biosearch Technologies, Novato, CA) for 90 minutes. Beta-hexosaminidase activity was measured in supernatants and solubilized cell pellets using p-Nitrophenyl N-acetyl-β-D-Glucosaminide substrate (Sigma Chemicals, St. Louis, MO) to generate a colorimetric signal that was measured in a SpectraMax (Molecular Devices) spectrophotometer at 405 nm. Percent release (% release) was calculated as described in Data Analysis section.
For the TEL-Syk assay, the intensity values for the 700 and 800 channel were exported as text files in ActivityBase (IDBS, Guildford, UK) to derive the ratios that reflect kinase activity. For LAD2 experiments, enzyme activity values were exported as text files into ActivityBase to calculate “percent release” according to the formula: 100* supernatant OD405/ (supernatant OD405 + (pellet OD405*pellet dilution factor)). For the basophil and B-cells assays, flow cytometry data was exported from the FACS Array and processed using FloJo software package (TreeStar, Inc., Ashland, Oregon). For the JAK2 HEL and Ramos NFAT β-lactamase assays, the fluorescence values obtained at 460 nm and 530 nm were exported into ActivityBase to calculate response ratios. […] Evans blue dye extravasation was expressed as mean ± SEM and % inhibition for the test article groups was normalized to the cromolyn positive control. […] The mean data from each group was plotted and either the AUC(day 11–18) or % inhibition on day 18 was calculated. Data is expressed as mean ± SEM of each group with n = 6–12. […]

MH7A cells = experiment: MH7A synoviocytes, TNFα-induced IL-6 production; type: cell-based, human
Description: Cells were maintained in culture and assayed as described by supplier. Briefly, MH7A cells were seeded to 6000 cells/ well in 96 well plates 1 day prior to stimulation. Cells were pretreated with compounds for 30 minutes, stimulated with TNFα (2 ng/ml) or IL-1β (0.5 ng/ml) and placed in tissue culture incubator for 16 hours. Supernatants were collected and assayed for cytokines using the Mesoscale Proinflammatory Panel I or Proinflammatory 4-plex according to the manufacturer’s protocol (Mesoscale, Gaithersberg, MD).

[3] = test system: primary human neutrophils; experiment: primary human neutrophils, opsonized zymosan-stimulated superoxide release; type: cell-based; conditions: opsonized zymosan stimulation, read-out: IC50, release of superoxide anions
Description: Cells were purified from EDTA-treated human whole blood using Polymorphprep (VWR, Radnor, PA) according to the protocol provided by the supplier. Eosinophils were further purified using an Eosinophil Kit (Miltenyi, Auburn, CA) according to manufacturer’s instructions. Neutrophil and eosinophil cell pellets were incubated in phenol red-free RPMI (Life Technologies, Grand Island, NY) for 30 minutes, washed in Kreb’s Ringer buffer, and plated in 96-well white opaque plates (Perkin Elmer, Foster City, CA) for luminescence. […] Neutrophils were activated with 0.5 mg/mL final concentration of opsonized zymosan, incubated for 30 minutes at room temperature in the dark, and then read on an Envision 2104 Multilabel Reader (Perkin Elmer, Foster City, CA). […] For eosinophils, cells were stimulated with IL-3 (200 pM, R&D Systems, Minneapolis, MN) for 24 hours at which point supernatants were collected and assessed for MCP-1 (Mesoscale).
For the TEL-Syk assay, the intensity values for the 700 and 800 channel were exported as text files in ActivityBase (IDBS, Guildford, UK) to derive the ratios that reflect kinase activity. […] For the JAK2 HEL and Ramos NFAT β-lactamase assays, the fluorescence values obtained at 460 nm and 530 nm were exported into ActivityBase to calculate response ratios. […] The mean data from each group was plotted and either the AUC(day 11–18) or % inhibition on day 18 was calculated. […]

With COc1cc(Nc2ncc(F)c(Nc3ccc4c(n3)NC(=O)C(C)(C)O4)n2)cc(OC)c1OC [R406, reference compound] the IC50 ([1]; mean ± SD, minimum n = 3, read-out: IC50, BCR-dependent upregulation of cell surface CD69) was 400 ± 220 nM, the IC50 ([2]; mean ± SD, minimum n = 3, read-out: IC50, IgE-mediated β-hexosaminidase release) was 110 ± 70 nM and the IC50 (MH7A cells) was 1040 ± 130 nM. It also gave an IC50 [3] of 1040 ± 450 nM.
With c1cc(CC2CCOCC2)n2nc(Nc3ccc4c(NC5CCOCC5)n[nH]c4c3)nc2c1 [CC-509, [3-(2H-3,4,5,6-tetrahydropyran-4-ylamino)(1H-indazol-6-yl)][5-(2H-3,4,5,6-tetrahydropyran-4-ylmethyl)(2H-1,2,4-triazolo[1,5-a]pyridin-2-yl)]amine] the IC50 ([1]; Homo sapiens, B-cell, B-cells BCR, curve shown in figure, read-out: IC50 printed in Fig 3B panel) was 570 nM, the IC50 ([1]; Homo sapiens, B-cell, mean ± SD, minimum n = 3, read-out: IC50, BCR-dependent upregulation of cell surface CD69) was 510 ± 90 nM and the IC50 ([2]; Homo sapiens, LAD2, mean ± SD, minimum n = 3, read-out: IC50, IgE-mediated β-hexosaminidase release) was 220 ± 130 nM. For the same compound, the IC50 ([2]; Homo sapiens, LAD2 FcεR, curve shown in figure, read-out: IC50 printed in Fig 3C panel) was 330 nM, the “IC50, TNFα-induced IL-6 production” value (MH7A cells) was “did not inhibit” and the IC50 ([3]; Homo sapiens, Neutrophil) was 3270 ± 1270 nM.
